Test results from US6642247B2 (priority 1998, dated 2003).

Compound | melting point
O=C(O)/C=C/C(=O)O.O=C1CCN(c2ccccc2)C12CCN(C1CCCCCCC1)CC2 | 197 °C
O=C(O)/C=C/C(=O)O.O=C1CCN(c2ccccc2)C12CCN(C1C[C@H]3CCCC[C@H]3C1)CC2 (stereo partly shown) | 225 °C
O=C(O)/C=C/C(=O)O.O=C1CCN(c2ccccc2)C12CCN(C1CCCCCCCCC1)CC2 | 177 °C
O=C(O)/C=C/C(=O)O.O=C1CCN(c2ccccc2)C12CCN(C1CCCCCCCC1)CC2 | 185 °C
Cl.O=C1CCN(c2ccccc2)C12CCN(C1Cc3ccccc3C1)CC2 | > 250 °C
CC(C)[C@H]1CC[C@@H](N2CCC3(CC2)ON=C(c2ccccc2)N3c2ccccc2)CC1.Cl | 131 °C
Cl.Cl.OC1CCN(c2ccccc2)C12CCN(C1CCCCCCCCC1)CC2 (racemic) | 170 °C (dec.)
O=C(O)/C=C/C(=O)O.O=C1CCN(c2ccccc2)C12CCN([C@@H]1CC[C@H]3CCCc4cccc1c43)CC2 (racemic) | 144 °C
Cl.OC1CCN(c2ccccc2)C12CCN(C1Cc3ccccc3C1)CC2 (racemic) | > 250 °C
Cc1cccc2c1CC(N1CCC3(CC1)C(=O)CCN3c1ccccc1)C2.Cl (racemic) | > 250 °C
Cl.O=C1CCN(c2ccccc2)C12CCN([C@@H]1CC[C@@H]3CCCC[C@@H]3C1)CC2 (racemic) | 250 to 251 °C (dec.)
COC1CCN(c2ccccc2)C12CCN(C1CCCCCCCCC1)CC2.Cl.Cl (racemic) | 170 °C (dec.)
COC1CCN(c2ccccc2)C12CCN(C1CCCCCCCC1)CC2.O=C(O)/C=C/C(=O)O (racemic) | 196 °C (dec.)

Continued, values first:

melting point | Compound
> 250 °C | Cl.OC1CCN(c2ccccc2)C12CCN(C1CCC3CCCCC3C1)CC2 (stereo not shown)
237 to 238 °C | CC(C)[C@H]1CC[C@H](N2CCC3(CC2)C(=O)CCN3c2ccccc2)CC1.Cl
> 250 °C | CC(C)[C@H]1CC[C@@H](N2CCC3(CC2)[C@H](O)CCN3c2ccccc2)CC1.Cl
> 250 °C | CC(C)[C@H]1CC[C@@H](N2CCC3(CC2)[C@@H](O)CCN3c2ccccc2)CC1.Cl
170 °C (dec.) | Cl.Cl.OC1CCN(c2ccccc2)C12CCN(C1CCCCCCCC1)CC2 (racemic)
173 °C (dec.) | Cl.Cl.OC1CCN(c2ccccc2)C12CCN(C1CCCCCCC1)CC2 (racemic)
> 250 °C | CC(C)[C@H]1CC[C@@H](N2CCC3(CC2)C(O)CCN3c2ccccc2)CC1.Cl (mixture of isomers)
214 to 215 °C | COC1CCN(c2ccccc2)C12CCN([C@H]1CC[C@@H](C(C)C)CC1)CC2.Cl (mixture of isomers)
> 250 °C | CC(C)[C@H]1CC[C@H](N2CCC3(CC2)C(O)CCN3c2ccccc2)CC1.Cl (mixture of isomers)
